Assay results taken from patent publication US8604055B2, “Substituted benzylamino quinolines as cholesterol ester-transfer protein inhibitors” (Dr. Reddy's Laboratories Ltd., priority 2004, dated 2013).
pIC50: −log10 of the molar value.

Target: T1, Recombinant CETP enzyme (Homo sapiens, UniProt P11597)
T1 construct: purchased Cardiovascular Targets
T1 sequence (P11597 18-493): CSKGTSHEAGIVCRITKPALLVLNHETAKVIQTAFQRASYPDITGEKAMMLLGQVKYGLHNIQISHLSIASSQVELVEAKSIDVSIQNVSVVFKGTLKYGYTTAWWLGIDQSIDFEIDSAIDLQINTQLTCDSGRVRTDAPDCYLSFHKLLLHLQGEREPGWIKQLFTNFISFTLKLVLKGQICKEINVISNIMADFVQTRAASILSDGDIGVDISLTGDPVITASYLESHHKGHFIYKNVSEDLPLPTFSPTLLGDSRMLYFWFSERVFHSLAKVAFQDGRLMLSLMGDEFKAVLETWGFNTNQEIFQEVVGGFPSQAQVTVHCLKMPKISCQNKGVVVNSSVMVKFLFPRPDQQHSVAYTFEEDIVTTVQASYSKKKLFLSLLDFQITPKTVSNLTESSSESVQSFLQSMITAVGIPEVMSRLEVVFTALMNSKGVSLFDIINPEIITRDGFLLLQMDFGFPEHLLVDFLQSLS
Experiment: In vitro fluorescence-based CETP inhibition assay (BODIPY-CE transfer from donor to acceptor microemulsions)
Assay type: biochemical
Conditions: recombinant CETP 0.14 ng/μl; transfer of fluorescent cholesteryl ester monitored over 2 hours; vs DMSO controls
Method: An in vitro fluorescence-based assay to identify CETP inhibitors was developed from modifications of the protocols outlined in Bisgaier et al., J Lipid Res., 34(9): 1625-34 (1993) and Epps et al., Chem Phys Lipids., 77(1): 51-63 (1995). Acceptor and donor lipid microemulsions were prepared according to Bisgaier et al., 1993, except that the buffer was prepared with 0.67 ug/mL human HDL (Calbiochem). Donor microemulsions contained the fluorescent cholesteryl ester analog BODIPY-CE (Molecular Probes), characterized by excitation and emission maxima at 503 nm and 518 nm, respectively. The CETP-mediated transfer of fluorescent cholesteryl ester to acceptor particles was monitored over a 2-hour time period using the FAM filter set (excitation 492 nm, emission 516 nm) in an MX3000P fluorescent plate reader (Stratagene). Recombinant CETP enzyme (Cardiovascular Targets) was used at 0.14 ng/μl, final concentration, to achieve lipid transfer. CETP inhibition by compounds was compared to DMSO controlsand graphed as a percentage of the control CETP activity over 2 hours. The IC50 curves for CETP inhibition were generated from the activity profiles. Active compounds were also tested for CETP inhibition as above, but in the presence of 3% human serum albumin, fraction V (Calbiochem).

Row | SMILES | pIC50
1 | CCN(CC1CCC1)c1nc2c(cc1CN(Cc1cc(C(F)(F)F)cc(C(F)(F)F)c1)c1nnn(C)n1)c(C)nn2C [Example 1, (5-{[(3,5-bis-trifluoromethyl-benzyl)-(2-methyl-2H-tetrazole-5-yl)-amino]-methyl}-1,3-dimethyl-1H-pyrazolo[3,4-b]pyridin-6-yl)-cyclobutylmethyl-ethyl-amine] | ≥ 6.00
2 | Cc1nn(C)c2nc(N(CC3CC3)CC3CC3)c(CN(Cc3cc(C(F)(F)F)cc(C(F)(F)F)c3)c3nnn(C)n3)cc12 [Example 2, (5-{[(3,5-bis-trifluoromethyl-benzyl)-(2-methyl-2H-tetrazole-5-yl)-amino]-methyl}-1,3-dimethyl-1H-pyrazolo[3,4-b]pyridin-6-yl)-bis-cyclopropylmethyl-amine] | ≥ 6.00
3 | CCN(CC1CC1)c1nc2c(cc1CN(Cc1cc(C(F)(F)F)cc(C(F)(F)F)c1)c1nnn(C)n1)c(C)nn2C [Example 3, (5-{[(3,5-bis-trifluoromethyl-benzyl)-(2-methyl-2H-tetrazole-5-yl)-amino]-methyl}-1,3-dimethyl-1H-pyrazolo[3,4-b]pyridin-6-yl)-cyclopropylmethyl-ethyl-amine] | ≥ 6.00
4 | Cc1nn(C)c2nc(N(C)CC3CCC3)c(CN(Cc3cc(C(F)(F)F)cc(C(F)(F)F)c3)c3nnn(C)n3)cc12 [Example 4, (5-{[(3,5-bis-trifluoromethyl-benzyl)-(2-methyl-2H-tetrazole-5-yl)-amino]-methyl}-1,3-dimethyl-1H-pyrazolo[3,4-b]pyridin-6-yl)-cyclobutylmethyl-methyl-amine] | ≥ 6.00
5 | CCN(c1nc2c(cc1CN(Cc1cc(C(F)(F)F)cc(C(F)(F)F)c1)c1nnn(C)n1)c(C)nn2C)C(C)C [Example 7, (5-{[(3,5-bis-trifluoromethyl-benzyl)-(2-methyl-2H-tetrazole-5-yl)-amino]-methyl}-1,3-dimethyl-1H-pyrazolo[3,4-b]pyridin-6-yl)-ethyl-isopropyl-amine] | ≥ 6.00
6 | CCN(CC1CCC1)c1nc2c(cc1CN(Cc1cc(C(F)(F)F)cc(C(F)(F)F)c1)c1cc(C)on1)c(C)nn2C [Example 10, (5-{[(3,5-bis-trifluoromethyl-benzyl)-(5-methyl-isoxazol-3-yl)-amino]-methyl}-1,3-dimethyl-1H-pyrazolo[3,4-b]pyridin-6-yl)-cyclobutylmethyl-ethyl-amine] | ≥ 6.00
7 | Cc1cc(N(Cc2cc(C(F)(F)F)cc(C(F)(F)F)c2)Cc2cc3c(C)nn(C)c3nc2N(CC2CC2)CC2CC2)no1 [Example 11, (5-{[(3,5-bis-trifluoromethyl-benzyl)-(5-methyl-isoxazol-3-yl)-amino]-methyl}-1,3-dimethyl-1H-pyrazolo[3,4-b]pyridin-6-yl)-bis-cyclopropylmethyl-amine] | ≥ 6.00
8 | CCN(CC1CCC1)c1nc2c(cnn2C)cc1CN(Cc1cc(C(F)(F)F)cc(C(F)(F)F)c1)c1nnn(C)n1 [Example 12, (5-{[(3,5-bis-trifluoromethyl-benzyl)-(2-methyl-2H-tetrazol-5-yl)-amino]-methyl}-1-methyl-1H-pyrazolo[3,4-b]pyridin-6-yl)-cyclobutylmethyl-ethyl-amine] | ≥ 6.00
9 | Cn1nnc(N(Cc2cc(C(F)(F)F)cc(C(F)(F)F)c2)Cc2cc3cnn(C)c3nc2N(CC2CC2)CC2CC2)n1 [Example 13, (5-{[(3,5-bis-trifluoromethyl-benzyl)-(2-methyl-2H-tetrazol-5-yl)-amino]-methyl}-1-methyl-1H-pyrazolo[3,4-b]pyridin-6-yl)-bis-cyclopropylmethyl-amine] | ≥ 6.00
10 | CCn1ncc2cc(CN(Cc3cc(C(F)(F)F)cc(C(F)(F)F)c3)c3nnn(C)n3)c(N(CC3CC3)CC3CC3)nc21 [Example 14, (5-{[(3,5-bis-trifluoromethyl-benzyl)-(2-methyl-2H-tetrazol-5-yl)-amino]-methyl}-1-ethyl-1H-pyrazolo[3,4-b]pyridin-6-yl)-bis-cyclopropylmethyl-amine] | ≥ 6.00
11 | CCN(CC1CCCC1)c1nc2c(cc1CN(Cc1cc(F)cc(F)c1)c1nnn(C)n1)c(C)nn2C [Example 18, cyclopentylmethyl-ethyl-(5-{[(3,5-difluoro-benzyl)-(2-methyl-2H-tetrazol-5-yl)-amino]-methyl}-1,3-dimethyl-1H-pyrazolo[3,4-b]pyridine-6-yl)-amine] | ≥ 6.00
12 | CCN(CC1CCCC1)c1nc2c(cc1CN(Cc1cc(Cl)cc(Cl)c1)c1nnn(C)n1)c(C)nn2C [Example 19, cyclopentylmethyl-(1,3-dimethyl-5-{[(2-methyl-2H-tetrazol-5-yl)-(3,5-dichlorobenzyl)-amino]-methyl}-1H-pyrazolo[3,4-b]pyridin-6-yl)-ethyl-amine] | ≥ 6.00
13 | CCN(CC1CCCC1)c1nc2c(cc1CN(Cc1cc(F)cc(C(F)(F)F)c1)c1nnn(C)n1)c(C)nn2C [Example 20, cyclopentylmethyl-ethyl-(5-{[(3-fluoro-5-trifluoromethyl-benzyl)-(2-methyl-2H-tetrazol-5-yl)-amino]-methyl}-1,3-dimethyl-1H-pyrazolo[3,4-b]pyridin-6-yl)-amine] | ≥ 6.00
14 | Cc1nn(C)c2nc(N(CC3CC3)CC3CC3)c(CN(Cc3cc(Cl)cc(Cl)c3)c3nnn(C)n3)cc12 [Example 21, bis-cyclopropylmethyl-(5-{[(3,5-dichlorobenzyl)-(2-methyl-2H-tetrazol-5-yl)-amino]-methyl}-1,3-dimethyl-1H-pyrazolo[3,4-b]pyridin-6-yl)-amine] | ≥ 6.00
15 | CCN(CC1CCCC1)c1nc2c(cc1CN(Cc1cc(C(F)(F)F)cc(C(F)(F)F)c1)c1nnn(C)n1)c(C)nn2C [Example 24, (5-{[(3,5-bis-trifluoromethyl-benzyl)-(2-methyl-2H-tetrazol-5-yl)-amino]-methyl}-1,3-dimethyl-1H-pyrazolo[3,4-b]pyridin-6-yl)-cyclopentylmethyl-ethyl-amine] | ≥ 6.00
16 | Cc1nn(C)c2nc(N(CC3CC3)C(=O)C3CC3)c(CN(Cc3cc(C(F)(F)F)cc(C(F)(F)F)c3)c3nnn(C)n3)cc12 [Example 27, cyclopropanecarboxylic acid (5-{[(3,5-bis-trifluoromethyl-benzyl)-(2-methyl-2H-tetrazol-5-yl)-amino]-methyl}-1,3-dimethyl-1H-pyrazolo[3,4-b]pyridin-6-yl)-cyclopropylmethyl-amide] | ≥ 6.00
17 | CCN(CC1CCCC1)c1nc2onc(C)c2cc1CN(Cc1cc(C(F)(F)F)cc(C(F)(F)F)c1)C(=O)OC [Example 32, (3,5-bis-trifluoromethyl-benzyl)-[6-(cyclopentylmethyl-ethyl-amino)-3-methyl-isoxazolo[5,4-b]pyridine-5-ylmethyl}-carbamic acid methyl ester] | ≥ 6.00
18 | CCN(CC1CCCC1)c1nc2onc(C)c2cc1CN(Cc1cc(C(F)(F)F)cc(C(F)(F)F)c1)c1nnn(C)n1 [Example 33, (5-{[(3,5-bis-trifluoromethyl-benzyl)-(2-methyl-2H-tetrazol-5-yl)-amino]-methyl}-3-methyl-isoxazolo[5,4-b]pyridine-6-yl)-cyclopentylmethyl-ethyl-amine] | ≥ 6.00
19 | CCN(CC1CCCC1)c1nc2ccccc2cc1CN(Cc1cc(C(F)(F)F)cc(C(F)(F)F)c1)C(=O)OC [Example 35, (3,5-bis-trifluoromethyl-benzyl)-[2-(cyclopentylmethyl-ethyl-amino)-quinolin-3-ylmethyl]-carbamic acid methyl ester] | ≥ 5.30
